Patent publication US20170367956A1, “Oral Care Composition” (Colgate-Palmolive Company, priority 2014, published 2017)

Columns and labels:
HSP-27 = experiment: Intracellular HSP27 expression in scratched keratinocytes (ELISA); type: cell-based, human; conditions: for HSP-27, intracellular: 50 ppm taurine
Method: Human keratinocytes are cultured in DMEM medium supplemented with 10% FBS and 1% of antibiotic at 37° C. under a 5% CO2 atmosphere in petri dishes. Once the cells are 80-90% confluent, a scratch is made horizontally and a scratch is made vertically across the layer of cells. […] […] The cell suspension is then homogenized with metal beads for 5 minutes and then analyzed for HSP27 using ELISA. In both untreated and arginine treated cells, scratching induces a strong increase in intracellular HSP-27 expression at one hour which declines at 4 hours. […] Without being bound by theory, Applicants believe that it is this initial burst of HSP-27 expression at the time of physical injury that contributes to improved wound healing.

HSP 27 = HSP 27 assay in scratched (damaged) human gingival tissue, supernatant level; type: cell-based; conditions: for Concentration of HSP 27: scratched gingival tissue
Method: A scratching protocol was used to damage and stress human gingival tissue (MatTek Corporation). Taurine, at two doses, (50 ppm and 200 ppm), was applied to the culture medium containing the tissue. The treated tissue was incubated at 37° C. to promote tissue healing. Cell supernatant was collected at various time points and the level of HSP 27 was measured.

Human keratinocytes = experiment: Migration of human keratinocytes after scratch (gap closure); type: cell-based; conditions: for % Gap Closure: 100 ppm taurine in DMEM
Method: Human keratinocytes are cultured in DMEM medium supplemented with 10% FBS and 1% of antibiotic at 37° C. under a 5% CO2 atmosphere in petri dishes. Once the cells are 80-90% confluent, a scratch is made horizontally and a scratch is made vertically across the layer of cells. 1 ml of a test solution is added to the culture, and the cells are further incubated and monitored by photomicroscopy to evaluate the closure of the gap created by the scratches. The test solutions compared are 100 ppm Taurine in DMEM medium and untreated DMEM medium. The results are shown in Table 4 below, expressed as the average width of the gap as a percentage of the initial width of the gap (at 0 hours).

Structure (SMILES) | HSP-27, intracellular (HSP-27; time 0 hr) | HSP-27, intracellular (HSP-27; time 1 hr) | Difference in HSP 27 production between the two concentrations of taurine (in words) (HSP 27; 50 ppm versus 200 ppm) | Effect on production of HSP 27 versus untreated, scratched tissue (in words) (HSP 27; both doses tested (50 ppm and 200 ppm), 1 hour and 4 hours) | Concentration of HSP 27 (HSP 27; taurine 50 ppm, incubation time 0 hr) | Concentration of HSP 27 (HSP 27; taurine 50 ppm, incubation time 1 hr) | Concentration of HSP 27 (HSP 27; taurine 50 ppm, incubation time 4 hr) | Concentration of HSP 27 (HSP 27; taurine 200 ppm, incubation time 0 hr) | Concentration of HSP 27 (HSP 27; taurine 200 ppm, incubation time 1 hr) | Concentration of HSP 27 (HSP 27; taurine 200 ppm, incubation time 4 hr) | Speed of gap closure compared to the DMEM control (in words) (Human keratinocytes; 100 ppm taurine) | % Gap Closure (Human keratinocytes; 24 hr after scratch) | % Gap Closure (Human keratinocytes; 48 hr after scratch) | % Gap Closure (Human keratinocytes; 144 hr after scratch) | Intracellular HSP-27 expression versus untreated cells (in words) (HSP-27)
NCCS(=O)(=O)O [Taurine, 2-aminoethanesulfonic acid] | 23.59 ng/mL | 69.65 ng/mL | no significant difference | significantly accelerated the production of HSP 27 | 10.05 ng/mL | 180.33 ng/mL | 269.64 ng/mL | 6.19 ng/mL | 196.95 ng/mL | 275.17 ng/mL | significantly faster | 23% | 71% | 100% | 
N=C(N)NCCC[C@H](N)C(=O)O [arginine] |  |  |  |  |  |  |  |  |  |  |  |  |  |  | significantly higher expression of HSP-27
